These are literature values, as cited in patent US20030144259A1, “Breast cancer hormonal therapy” (priority 2000, published 2003).

For the data set the following is noted: human, in vivo; cited from earlier work.

As to `CCC1(c2ccc(N)cc2)CCC(=O)NC1=O` (stereo not shown) [aminoglutethimide], the dizziness is given as 15%; the lethargy is 36%; the nausea and vomiting is 10%; the “patients requiring discontinuation of drug” value was “about 5%”. The “patients with side effects” value is on record as “about 35%”, the severe myelosuppression entry is listed as “less than 1%” and the transient maculopapular rash is given as 25%.
